Test [1] concerns anti-KLH antibody production. As to the kind of experiment: Suppressive effect on anti-KLH antibody production in mice (ELISA of serum IgG). Type of test: in vivo, Balb/c mice. The note with it: for antibody production (anti-KLH) / Anti-KLH antibody titer (unit ± SD): Example 7; for Anti-KLH antibody titer (unit ± SD): in a similar manner to Example 3; for Anti-KLH antibody titer (unit ± SD) / Anti-KLH IgG antibody titer (unit ± SD): 8 mice per group; for Anti-KLH IgG antibody titer (unit ± SD): Example 3, 100 µg subcutaneously day 5 and day 3 prior to KLH, blood day 21 after antigen. As to the method: Day 5 and day 3 prior to the antigen administration, 100 µg of each Peptide (I) to (VI) of the present invention composed of 9 amino acid residues indicated by Sequence ID No. 1 in the Sequence Listing were dissolved in 200 µl of physiological saline. The resulting solution was subcutaneously administered to 9-week-old Balb/c mice. As a control, a non-administered group to which the same amount of physiological saline was administered was employed. In 200 µl of physiological saline, 25 µg of KLH were dissolved as an antigen and the resulting solution was subcutaneously administered. The blood was collected on day 21 after antigen administration and an antibody titer was measured by the method which is described below.
KLH was diluted to 10 µg/ml with a phosphate buffered physiological saline (PBS). Fifty µl portions of the resulting solution were poured into a 96-well microplate and the plate was allowed to stand at 4iC overnight. After the microplate was washed three times with 0.05% Tween-20-containing PBS (T-PBS), 200 µl portions of 0.5% casein tris-buffered physiological saline (casein TBS) were poured into wells, respectively. […] The microplate was washed three times with T-PBS and 50 µl portions of the mouse serum diluted to 1/200 with casein TBS were poured into the wells, followed by reaction for one hour (primary reaction).
The resulting microplate was washed three times with T-PBS, to which 50 µl portions of an anti-mouse IgG-peroxidase-labeled antibody (TAGO Co.) diluted to 1/4000 with casein TBS were poured. The reaction was effected at room temperature for one hour (secondary reaction). After the completion of the secondary reaction, the plate was washed three times again. Fifty µl portions of a substrate liquid/chromogen (chromogen substrate: Behringwerke AG) were poured into wells, respectively, followed by reaction at room temperature for 30 minutes. After the completion of the reaction, 0.5N diluted sulfuric acid was added to terminate the reaction and an absorbance at 450 nm was measured by a colorimeter ("BEP-II", product of Behringwerke AG/Germany) with the absorbance at 650 nm as a control.
In a similar manner to Example 3, suppressive effects of Peptides (I), (VII) to (XV) on anti-KLH antibody production in mice were studied.

Test [2] has as its system anti-OVA antibody production. As to the kind of experiment: Suppressive effect on anti-OVA antibody production in mice (ELISA of serum IgG). Type of test: in vivo, Balb/c mice. The arrangement: Anti OVA Ig-G antibody titer (unit): dose or concentration left out as unconfirmed. The note with it: for Anti-OVA antibody titer: in a similar manner to Example 2. The protocol: Day 5 and day 3 prior to the antigen administration, Peptide (I) composed of 9 amino acid residues as indicated by Sequence ID No. 1 in the Sequence Listing of the present invention and a synthetic peptide 15 composed of 15 amino acid residues derived from clone 17.2 TcR, which peptide had been reported by Mohapatra et al. as described above, 100 g each, were dissolved in 200 of physiological saline and each solution thus obtained was subcutaneously administered to 9-week-old Balb/c mice. As a control, a non-administered group to which the same amount of physiological saline was administered was employed. In 200 I of physiological saline, 100 g of OVA (Sigma Chemical Co.) were dissolved, followed by subcutaneous administration. Blood was collected on day 21 after antigen administration and an antibody titer was measured by the method described below.
OVA was diluted to 10 µg/ml with phosphate buffered saline (PBS) and 50 I portions of the solution were poured in a 96-well microplate. The coating operation was conducted overnight at […]. The microplate was then washed three times with a 0.05% Tween-20-containing PBS (T-PBS). 200 portions of 0.5% casein-containing tris buffered physiological saline (casein TBS) were poured in each well and the microplate was allowed to stand at room temperature for one hour. The microplate was then washed three times with T-PBS. After the serum of the blood collected from the mice was diluted to 1/200 with 0.5% casein TBS, 50 I portions of the diluted serum were poured in each well and the plate was allowed to stand for one hour (primary reaction).
After the completion of the primary reaction, the microplate was washed three times with T-PBS. Fifty I portions of anti-mouse IgG-peroxidase-labeled antibody (TAGO Co.) diluted to 1/4000 with 0.5% casein TBS were poured in each well, followed by reaction at room temperature for one hour (secondary reaction). After the completion of the secondary reaction, the plate was washed three times again. Fifty I portions of a substrate liquid/chromogen (chromogen substrate: Behringwerke AG) were poured in each well, followed by reaction at room temperature for 30 minutes. After the completion of the reaction, 0.5N diluted sulfuric acid was added to terminate the reaction and an absorbance at 450 nm was measured by a colorimeter ("BEP-II", product of Behringwerke AG/Germany) with an absorbance at 650 nm as a control.
In a similar manner to Example 2, the suppressive effects of Peptides (I), (VII) to (XIV) on the anti-OVA antibody production in mice were measured.

Test [3] has as its system EAE model mice. As to the kind of experiment: Onset suppressive effect on EAE model mice (clinical score). The note with it: for average score ± SD: score 0-6. Details: key to average score ± SD: EAE onset score per Pettinelli et al. 1982 criteria. It is filed as in vivo, SJL mouse. The protocol:
As an antigen, guinea pig spinal chord homogenate was employed. The guinea pig spinal chord homogenate was diluted with PBS to be 6.6 mg/ml, followed by the addition of the equivalent amount of Freund ? s complete adjuvant. The resulting mixture was formed into an emulsion by an ultrasonic sonicator. The resulting emulsion was administered to two areas under the lateral skin in a total amount of 300 µl. Day 5 and day 3 prior to antigen administration, and 5 days a week for 4 weeks after antigen administration, the solution of Peptide (I) dissolved in 100 µl physiological saline was subcutaneously administered to a 14-week old SJL mouse. Incidentally, in order to increase an onset ratio, […] of pertussis toxin (PTX) were intravenously administered as an enhancer on the day of antigen administration and two days after antigen administration. Observation of the onset was performed from day 14 to day 28 after primary antigen administration. The onset was scored based on the following standard criteria [Pettinelli, C. B., Fritz, D. E., and McFarlin, D. E. J. Immunl., 129, No. 3, 1024-1028 (1982)]. In Table 3, values of average score + standard deviation (SD) in each administration group on day 22, day 25 and day 28 after primary antigen administration are shown.

Setting [4] is: compared with Peptide (I) administered group.
The mark [5] stands for this setting: Example 8, compared with Peptide (I) administered group.
The mark [6] stands for this setting: compared with the non-administered group and Peptide (I) administered group.
Where [7] appears, read: Example 8, compared with the non-administered group and Peptide (I) administered group.

Non-standard residues stand in square brackets, D forms with d. Residues, ends and D or L forms follow the SMILES beside them. No end group written: not given here.

For AKATFGKG [Peptide (XIII)], the “antibody production (anti-KLH)” value in test [1] (setting [4]) is “not suppressed”. Moreover, the “Anti-KLH antibody titer (unit ± SD)” value in test [1] came to 68.9 ± 25.1 unit. Also, the “antibody production (anti-OVA)” value in test [2] (setting [5]) is recorded as “not suppressed”. The Anti-OVA antibody titer in test [2] (Example 8, 8 mice per group) was found to be 193.5 ± 155.9.
Regarding AKLAFGKG [Peptide (IX)], the “antibody production (anti-KLH)” value in test [1] (setting [6]) is given as “significantly suppressed”. Besides, the “Anti-KLH antibody titer (unit ± SD)” value in test [1] worked out at 33.9 ± 13.7 unit. The “antibody production (anti-OVA)” value in test [2] (setting [7]) is recorded as “significantly suppressed”. The compound further showed an Anti-OVA antibody titer in test [2] (Example 8, 8 mice per group) of 10.4 ± 6.3.
Take AKLTFGAG [Peptide (XI)]: the “antibody production (anti-KLH)” value in test [1] (setting [6]) is “significantly suppressed”. Moreover, the “Anti-KLH antibody titer (unit ± SD)” value in test [1] is 19.9 ± 15.9 unit. Besides, the “antibody production (anti-OVA)” value in test [2] (setting [7]) is given as “significantly suppressed”. Moreover, the Anti-OVA antibody titer in test [2] (Example 8, 8 mice per group) was 15.3 ± 14.3.
In the case of KLTFGKG [Peptide (XV)], the “antibody production (anti-KLH)” value in test [1] (setting [4]) was “not suppressed”. Also, in test [1], the “Anti-KLH antibody titer (unit ± SD)” value is listed as 86.4 ± 27.8 unit.
For the compound `CC(=O)N[C@H](C)C(=O)N[C@H](CCCCN)C(=O)N[C@H](CC(C)C)C(=O)N[C@@H](C(=O)N[C@H](Cc1ccccc1)C(=O)NCC(=O)N[C@H](CCCCN)C(=O)NCC(=O)N[C@@H](C(=O)O)[C@H](C)O)[C@H](C)O` [Peptide (V)] (Ac-[dA][dK][dL][dT][dF]G[dK]G[dT]-OH), the “Anti-KLH IgG antibody titer (unit ± SD)” value in test [1] was determined as 37.7 ± 17.7 unit.
For AKLTFGKA [Peptide (XII)], the “antibody production (anti-KLH)” value in test [1] (setting [4]) was “not suppressed”. The “Anti-KLH antibody titer (unit ± SD)” value in test [1] worked out at 49.5 ± 40.1 unit. Moreover, the Anti-OVA antibody titer in test [2] (Example 8, 8 mice per group) amounted to 50.9 ± 26.7.
Regarding AKLTFGKGT [Peptide (I)], in test [1], the “Anti-KLH IgG antibody titer (unit ± SD)” value is listed as 78.7 ± 28.3 unit. In addition, the “Anti-KLH antibody titer (unit ± SD)” value in test [1] turned out to be 39.5 ± 16.1 unit. In addition, the “average score ± SD” value in test [3] (1 µg/body subcutaneously, Day 22 after primary antigen administration) was determined as 1.6 ± 1.8; in test [3] (1 µg/body subcutaneously, Day 25 after primary antigen administration), 0.9 ± 1.1; in test [3] (1 µg/body subcutaneously, Day 28 after primary antigen administration), 1.8 ± 1.9; in test [3] (5 µg/body subcutaneously, Day 22 after primary antigen administration) it was 0.4 ± 0.7; in test [3] (5 µg/body subcutaneously, Day 25 after primary antigen administration) it was 1.0 ± 1.1; in test [3] (5 µg/body subcutaneously, Day 28 after primary antigen administration), 0.7 ± 0.8. For the same compound, the “average score ± SD” value turned out to be 0.3 ± 0.4 in test [3] (25 µg/body subcutaneously, Day 22 after primary antigen administration); 0.1 ± 0.3 in test [3] (25 µg/body subcutaneously, Day 25 after primary antigen administration); 0.0 ± 0.0 in test [3] (25 µg/body subcutaneously, Day 28 after primary antigen administration). Also, the “onset of EAE” value in test [3] (5 µg/body group compared with the physiological saline group) was “suppressed on day 25 and day 28 with a significant difference of 5%”; in test [3] (25 µg/body group compared with the physiological saline group, from day 22) it was “suppressed from day 22 with a significant difference of 5%”; in test [3] (25 µg/body group compared with the physiological saline group, from day 25), “suppressed with a significant difference of 1%”; in test [3] (administration of Peptide (I), overall statement), “suppressed”. Besides, in test [2] (Example 2, compared with the non-administered group), the “antibody production (anti-OVA)” value was “significantly suppressed”. Further, the “Anti OVA Ig-G antibody titer (unit)” value in test [2] (Example 2, subcutaneously day 5 and day 3 prior to OVA, blood day 21 after antigen, 8 mice per group, mean ± spread) worked out at 8.8 ± 10.8 unit. This compound registered an Anti-OVA antibody titer in test [2] (Example 8, 8 mice per group) of 23.8 ± 12.4.
For the compound AALTFGKG [Peptide (VIII)], the “antibody production (anti-KLH)” value in test [1] (setting [4]) is reported as “not suppressed”. In test [1], the “Anti-KLH antibody titer (unit ± SD)” value turned out to be 44.9 ± 18.1 unit. The compound further had an Anti-OVA antibody titer in test [2] (Example 8, 8 mice per group) of 65.3 ± 34.7.
Turning to Ac-AKLTFGKGT [Peptide (III)], the “Anti-KLH IgG antibody titer (unit ± SD)” value in test [1] is recorded as 50.1 ± 25.8 unit.
Still for that read-out and setting: in the case of `CC(=O)N[C@H](C)C(=O)N[C@H](CCCCN)C(=O)N[C@H](CC(C)C)C(=O)N[C@@H](C(=O)N[C@H](Cc1ccccc1)C(=O)NCC(=O)N[C@H](CCCCN)C(=O)NCC(=O)N[C@@H](C(N)=O)[C@H](C)O)[C@H](C)O` [Peptide (VI)] (Ac-[dA][dK][dL][dT][dF]G[dK]G[dT]-NH2) it was 29.5 ± 19.5 unit; in that of `CC(C)C[C@@H](NC(=O)[C@@H](CCCCN)NC(=O)[C@@H](C)N)C(=O)N[C@@H](C(=O)N[C@H](Cc1ccccc1)C(=O)NCC(=O)N[C@H](CCCCN)C(=O)NCC(=O)N[C@@H](C(=O)O)[C@H](C)O)[C@H](C)O` [Peptide (II)] (H-[dA][dK][dL][dT][dF]G[dK]G[dT]-OH), 48.4 ± 13.1 unit.
With AKLTAGKG [Peptide (XIV)], the “antibody production (anti-KLH)” value in test [1] (setting [4]) is listed as “not suppressed”. Moreover, the “Anti-KLH antibody titer (unit ± SD)” value in test [1] was 59.9 ± 32.8 unit. The “antibody production (anti-OVA)” value in test [2] (setting [5]) is “not suppressed”. In test [2] (Example 8, 8 mice per group), the Anti-OVA antibody titer is on record as 90.9 ± 89.5.
On to AKLTFGKG [Peptide (VII)], for which the “antibody production (anti-KLH)” value in test [1] (setting [6]) is reported as “significantly suppressed”. Also, the “Anti-KLH antibody titer (unit ± SD)” value in test [1] came out at 25.9 ± 15.4 unit. Further, the “antibody production (anti-OVA)” value in test [2] (setting [7]) is “significantly suppressed”. In addition, the Anti-OVA antibody titer in test [2] (Example 8, 8 mice per group) was 20.9 ± 21.4.
Turning to AKLTFAKG [Peptide (X)], the “antibody production (anti-KLH)” value in test [1] (setting [6]) is listed as “significantly suppressed”. Further, in test [1], the “Anti-KLH antibody titer (unit ± SD)” value is recorded as 26.5 ± 22.0 unit. For the same compound, the Anti-OVA antibody titer in test [2] (Example 8, 8 mice per group) was determined as 49.8 ± 28.4.

(Values after patent EP0821003B1, “PEPTIDES AND REMEDY FOR AUTOIMMUNE DISEASES COMPRISING THE SAME” (Aventis Pharma Ltd., priority 1995, dated 2003).)
